Experiment: pH titration (method of Wiskur et al.)
Assay type: physicochemical
Description: The exemplary boronic acid crosslinking agent prepared as described above was compared to 1,4-phenylene diboronic acid and boric acid using a pH titration that was performed according to the method of S. L. Wiskur, et al., Org.

Which pH (NaOH 0 μL) does the source give for OB(O)c1ccc(B(O)O)cc1 [1,4-phenylene diboronic acid] here?
The pH was 3.32.

What about the pH (NaOH 1 μL) of the same compound?
Its pH is 3.47.

And the pH (NaOH 2 μL)?
The pH was 3.67.

And the pH (NaOH 3 μL)?
The pH was 4.07.

And the pH (NaOH 4 μL)?
The pH was 5.66.

And the pH (NaOH 5 μL)?
The pH was 6.6.

What about the pH (NaOH 6 μL) of the same compound?
The pH was 6.97.

What about the pH (NaOH 7 μL) of the same compound?
Its pH is 7.18.

And the pH (NaOH 8 μL)?
The pH was 7.33.

And the pH (NaOH 9 μL)?
Its pH is 7.44.

And the pH (NaOH 10 μL)?
Its pH is 7.53.

And the pH (NaOH 11 μL)?
The pH was 7.62.

And the pH (NaOH 12 μL)?
Its pH is 7.69.

And the pH (NaOH 13 μL)?
Its pH is 7.76.

What about the pH (NaOH 14 μL) of the same compound?
Its pH is 7.82.

And the pH (NaOH 15 μL)?
Its pH is 7.88.

And the pH (NaOH 16 μL)?
The pH was 7.94.

What about the pH (NaOH 17 μL) of the same compound?
The pH was 8.

What about the pH (NaOH 18 μL) of the same compound?
Its pH is 8.05.

What about the pH (NaOH 19 μL) of the same compound?
The pH was 8.11.

What about the pH (NaOH 20 μL) of the same compound?
Its pH is 8.17.

What about the pH (NaOH 21 μL) of the same compound?
The pH was 8.21.

And the pH (NaOH 22 μL)?
Its pH is 8.25.

And the pH (NaOH 23 μL)?
Its pH is 8.39.

What about the pH (NaOH 24 μL) of the same compound?
Its pH is 8.46.

And the pH (NaOH 25 μL)?
Its pH is 8.51.

And the pH (NaOH 26 μL)?
Its pH is 8.57.

And the pH (NaOH 27 μL)?
The pH was 8.64.

And the pH (NaOH 28 μL)?
Its pH is 8.7.

And the pH (NaOH 29 μL)?
The pH was 8.76.

And the pH (NaOH 30 μL)?
The pH was 8.82.

What about the pH (NaOH 31 μL) of the same compound?
Its pH is 8.96.

What about the pH (NaOH 32 μL) of the same compound?
The pH was 9.02.

And the pH (NaOH 33 μL)?
Its pH is 9.09.

What about the pH (NaOH 34 μL) of the same compound?
The pH was 9.15.

What about the pH (NaOH 35 μL) of the same compound?
Its pH is 9.21.

And the pH (NaOH 36 μL)?
The pH was 9.26.

What about the pH (NaOH 37 μL) of the same compound?
Its pH is 9.32.

What about the pH (NaOH 38 μL) of the same compound?
Its pH is 9.38.

And the pH (NaOH 39 μL)?
The pH was 9.43.

What about the pH (NaOH 40 μL) of the same compound?
The pH was 9.47.

And the pH (NaOH 41 μL)?
Its pH is 9.51.

What about the pH (NaOH 42 μL) of the same compound?
Its pH is 9.56.

What about the pH (NaOH 43 μL) of the same compound?
Its pH is 9.6.

And the pH (NaOH 44 μL)?
Its pH is 9.64.

And the pH (NaOH 45 μL)?
The pH was 9.68.

What about the pH (NaOH 46 μL) of the same compound?
Its pH is 9.71.

What about the pH (NaOH 47 μL) of the same compound?
The pH was 9.75.

And the pH (NaOH 48 μL)?
Its pH is 9.79.

And the pH (NaOH 49 μL)?
Its pH is 9.82.

What about the pH (NaOH 50 μL) of the same compound?
Its pH is 9.86.

And the pH (NaOH 51 μL)?
Its pH is 9.89.

And the pH (NaOH 52 μL)?
Its pH is 9.93.

What about the pH (NaOH 53 μL) of the same compound?
Its pH is 9.96.

What about the pH (NaOH 54 μL) of the same compound?
The pH was 10.

What about the pH (NaOH 55 μL) of the same compound?
The pH was 10.03.

And the pH (NaOH 56 μL)?
The pH was 10.06.

And the pH (NaOH 57 μL)?
Its pH is 10.1.

And the pH (NaOH 58 μL)?
Its pH is 10.13.

What about the pH (NaOH 59 μL) of the same compound?
Its pH is 10.16.

And the pH (NaOH 60 μL)?
The pH was 10.19.

What about the pH (NaOH 61 μL) of the same compound?
The pH was 10.23.

And the pH (NaOH 62 μL)?
The pH was 10.26.

What about the pH (NaOH 63 μL) of the same compound?
The pH was 10.28.

What about the pH (NaOH 64 μL) of the same compound?
Its pH is 10.3.

And the pH (NaOH 65 μL)?
Its pH is 10.33.

And the pH (NaOH 66 μL)?
Its pH is 10.33.

What about the pH (NaOH 67 μL) of the same compound?
The pH was 10.37.

What about the pH (NaOH 68 μL) of the same compound?
Its pH is 10.39.

What about the pH (NaOH 69 μL) of the same compound?
Its pH is 10.42.

And the pH (NaOH 70 μL)?
The pH was 10.44.

What about the pH (NaOH 71 μL) of the same compound?
Its pH is 10.47.

What about the pH (NaOH 72 μL) of the same compound?
Its pH is 10.49.

And the pH (NaOH 73 μL)?
Its pH is 10.49.

What about the pH (NaOH 74 μL) of the same compound?
The pH was 10.53.

And the pH (NaOH 75 μL)?
Its pH is 10.55.

And the pH (NaOH 76 μL)?
The pH was 10.55.

And the pH (NaOH 77 μL)?
Its pH is 10.57.

Which pH (NaOH 0 μL) does the source give for OB(O)O [Boric acid] here?
The pH was 3.03.

And the pH (NaOH 1 μL)?
The pH was 3.13.

And the pH (NaOH 2 μL)?
Its pH is 3.25.

What about the pH (NaOH 3 μL) of the same compound?
The pH was 3.4.

And the pH (NaOH 4 μL)?
Its pH is 3.64.

What about the pH (NaOH 5 μL) of the same compound?
Its pH is 4.06.

And the pH (NaOH 6 μL)?
The pH was 6.08.

What about the pH (NaOH 7 μL) of the same compound?
The pH was 7.58.

What about the pH (NaOH 8 μL) of the same compound?
Its pH is 7.91.

What about the pH (NaOH 9 μL) of the same compound?
The pH was 8.11.

And the pH (NaOH 10 μL)?
The pH was 8.26.

And the pH (NaOH 11 μL)?
Its pH is 8.39.

What about the pH (NaOH 12 μL) of the same compound?
The pH was 8.49.

And the pH (NaOH 13 μL)?
The pH was 8.59.

What about the pH (NaOH 14 μL) of the same compound?
Its pH is 8.67.

What about the pH (NaOH 15 μL) of the same compound?
The pH was 8.74.

What about the pH (NaOH 16 μL) of the same compound?
Its pH is 8.82.

What about the pH (NaOH 17 μL) of the same compound?
The pH was 8.89.

What about the pH (NaOH 18 μL) of the same compound?
The pH was 8.96.

And the pH (NaOH 19 μL)?
Its pH is 9.03.

What about the pH (NaOH 20 μL) of the same compound?
The pH was 9.1.

What about the pH (NaOH 21 μL) of the same compound?
Its pH is 9.17.

What about the pH (NaOH 22 μL) of the same compound?
Its pH is 9.25.

What about the pH (NaOH 23 μL) of the same compound?
Its pH is 9.31.

What about the pH (NaOH 24 μL) of the same compound?
The pH was 9.38.

What about the pH (NaOH 25 μL) of the same compound?
The pH was 9.47.

What about the pH (NaOH 26 μL) of the same compound?
The pH was 9.55.

And the pH (NaOH 27 μL)?
The pH was 9.65.

What about the pH (NaOH 28 μL) of the same compound?
Its pH is 9.74.

And the pH (NaOH 29 μL)?
Its pH is 9.85.

What about the pH (NaOH 30 μL) of the same compound?
The pH was 9.95.

What about the pH (NaOH 31 μL) of the same compound?
Its pH is 10.05.

What about the pH (NaOH 32 μL) of the same compound?
Its pH is 10.13.

What about the pH (NaOH 33 μL) of the same compound?
Its pH is 10.22.

What about the pH (NaOH 34 μL) of the same compound?
Its pH is 10.29.

And the pH (NaOH 35 μL)?
The pH was 10.35.

And the pH (NaOH 36 μL)?
Its pH is 10.4.

What about the pH (NaOH 37 μL) of the same compound?
Its pH is 10.45.

And the pH (NaOH 38 μL)?
Its pH is 10.49.

What about the pH (NaOH 39 μL) of the same compound?
Its pH is 10.53.

What about the pH (NaOH 40 μL) of the same compound?
The pH was 10.56.

What about the pH (NaOH 41 μL) of the same compound?
The pH was 10.59.

What about the pH (NaOH 42 μL) of the same compound?
The pH was 10.62.

And the pH (NaOH 43 μL)?
Its pH is 10.65.

And the pH (NaOH 44 μL)?
Its pH is 10.68.

And the pH (NaOH 45 μL)?
The pH was 10.7.

What about the pH (NaOH 46 μL) of the same compound?
The pH was 10.71.

And the pH (NaOH 47 μL)?
The pH was 10.75.

And the pH (NaOH 48 μL)?
The pH was 10.77.

What about the pH (NaOH 49 μL) of the same compound?
Its pH is 10.78.

What about the pH (NaOH 50 μL) of the same compound?
The pH was 10.78.

What about the pH (NaOH 51 μL) of the same compound?
Its pH is 10.81.

What about the pH (NaOH 52 μL) of the same compound?
The pH was 10.82.

And the pH (NaOH 53 μL)?
Its pH is 10.82.

And the pH (NaOH 54 μL)?
Its pH is 10.85.

What about the pH (NaOH 55 μL) of the same compound?
Its pH is 10.85.

What about the pH (NaOH 56 μL) of the same compound?
The pH was 10.87.

What about the pH (NaOH 57 μL) of the same compound?
The pH was 10.87.

And the pH (NaOH 58 μL)?
Its pH is 10.89.

And the pH (NaOH 59 μL)?
Its pH is 10.89.

And the pH (NaOH 60 μL)?
Its pH is 10.91.

And the pH (NaOH 61 μL)?
The pH was 10.92.

And the pH (NaOH 62 μL)?
Its pH is 10.92.

And the pH (NaOH 63 μL)?
The pH was 10.92.

And the pH (NaOH 64 μL)?
Its pH is 10.95.

And the pH (NaOH 65 μL)?
The pH was 10.95.

What about the pH (NaOH 66 μL) of the same compound?
The pH was 10.95.

What about the pH (NaOH 67 μL) of the same compound?
Its pH is 10.97.

And the pH (NaOH 68 μL)?
Its pH is 10.97.

What about the pH (NaOH 69 μL) of the same compound?
The pH was 11.

What about the pH (NaOH 70 μL) of the same compound?
Its pH is 11.

And the pH (NaOH 71 μL)?
The pH was 11.

And the pH (NaOH 72 μL)?
Its pH is 11.

And the pH (NaOH 73 μL)?
The pH was 11.

What about the pH (NaOH 74 μL) of the same compound?
Its pH is 11.

And the pH (NaOH 75 μL)?
The pH was 11.03.

What about the pH (NaOH 76 μL) of the same compound?
The pH was 11.03.

What about the pH (NaOH 77 μL) of the same compound?
Its pH is 11.03.
